Experimental data taken from patent US7319029B2, “Lipase from Geobacillus sp. strain T1” (Universiti Purta Malaysia, priority 2004, dated 2008).
Where a SMILES comes first, the peptide text is derived from it. [ ]: non-standard residue; d: D form. The star is where a group is joined. Sta = CC(C)C[C@H](N)[C@@H](O)CC(=O)O; Isovaleryl = CC(C)CC(=O)*

Key:
[1] = system: T1 mature lipase; assay: Effect of metal ions, surfactants and inhibitors on lipase activity; assay type: biochemical, Geobacillus sp. strain T1; conditions: for Effect of inhibitor on lipase activity: 5 mM (Pepstatin 1 mM), 30 min; for Effect of inhibitor on lipase activity / Effect of metal ion on lipase activity / Inhibition of lipase activity: 50° C.; for Effect of metal ion on lipase activity: 1 mM, after 30 min of treatment; for Effect of surfactant on lipase activity: 0.1%; for Inhibition of lipase activity: metal ion 1 mM, after 30 min
Experimental: The T1 lipase was tested at temperatures ranging from 40° C. to 80° C. at 5° C. intervals for 30 min for enzyme activity. The thermostability test was conducted at various temperatures for different hours. Recombinant T1 lipase was also kept at a wide range of pH values ranging from pH 4-12 for pH activity and stability determination. The buffer systems used were 50 mM acetate buffer (pH 4-6), potassium phosphate buffer (pH 6-8), Tris-HCl buffer (pH 8-9), glycine-NaOH buffer (pH 9-11), and Na2HPO3/NaOH buffer (pH 11-12). The effect of effectors (metal ions, surfactants) and inhibitors were studied at a concentration of 1 mM and 5 mM, respectively at 50° C. for 30 min with an exceptional for pepstatin (1.0 mM).
The effect of metal ion at final concentration of 1 mM was tested by treatment at 50° C. for 30 min. […] The effect of surfactants on lipase activity on lipase activity was studied at concentration of 0.1% (FIG. 6).
The effect of inhibitors on lipase activity on several metal chelating agent, reducing agents, serine and aspartate inhibitors were used to study the inhibition effect to T1 mature lipase.

[2] = system: T1 mature lipase; assay: as above; assay type: biochemical, Geobacillus sp. strain T1; conditions: 1 mM, 50° C., after 15 min of treatment
[3] = system: P1 lipase; conditions: 10 mM of PMSF; cited from earlier work

With `O[C@@H](CS)[C@@H](O)CS` [DTT] as the compound, how does the “Effect of inhibitor on lipase activity” value [1] read?
The value was “little inhibition effect”.

For `[Na+]` [Na^+], which “Effect of metal ion on lipase activity” value [2] is on record?
Its value is “slightly enhanced”.

For `[Mn+2]` [Mn^2+], which “Effect of metal ion on lipase activity” value [1] is on record?
Its value is “stabilizing effect”.

What about the “Effect of metal ion on lipase activity” value [2] of the same compound?
The value was “slightly enhanced”.

With `CC(C)CC(=O)N[C@H](C(=O)N[C@H](C(=O)N[C@@H](CC(C)C)[C@@H](O)CC(=O)N[C@@H](C)C(=O)N[C@@H](CC(C)C)[C@@H](O)CC(=O)O)C(C)C)C(C)C` [Pepstatin] (Isovaleryl-VV[Sta]A[Sta]-OH) as the compound, how does the “Effect of inhibitor on lipase activity” value [1] read?
Its value is “strongly inhibited”.

Which “Effect of inhibitor on lipase activity” value [1] does the source give for `O=S(=O)(F)Cc1ccccc1` [PMSF] here?
The value was “strongly inhibited”.

And the “Inhibition of P1 lipase” value [3]?
Its value is 77%.

What does the source list for Tween?
Effect of surfactant on lipase activity [1]: obvious enhancement; Effect of surfactant on lipase activity ([1]; listed as Tween 20-80): enhancement effect

For `[Mg+2]` [Mg^2+], which “Effect of metal ion on lipase activity” value [1] is on record?
The value was “stabilizing effect”.

For `OCCS` [β-mercaptoethanol], which “Effect of inhibitor on lipase activity” value [1] is on record?
The value was “little inhibition effect”.

Which “Effect of inhibitor on lipase activity” value [1] does the source give for `O=C(O)CN(CCN(CC(=O)O)CC(=O)O)CC(=O)O` [EDTA] here?
Its value is “slightly effect”.

For `[Zn+2]` [Zn^2+], which “Effect of metal ion on lipase activity” value [1] is on record?
The value was “stabilizing effect”.

Which results are given for `[K+]` [K^+]?
Effect of metal ion on lipase activity [1]: stabilizing effect; Effect of metal ion on lipase activity [2]: slightly enhanced

For `[Ca+2]` [Ca^2+], which “Effect of metal ion on lipase activity” value [1] is on record?
The value was “stabilizing effect”.

With `[Fe+2]` [Fe^2+] as the compound, how does the “Inhibition of lipase activity” value [1] read?
The value was 60%.

With `[Cu+2]` [Cu^2+] as the compound, how does the “Inhibition of lipase activity” value [1] read?
Its value is 52%.
